Here are results for 5 compounds from patent US5726186A, “Pentacyclic compounds, intermediates, processes, compositions, and methods” (Eli Lilly and Company, priority 1996, dated 1998).

Molecules are shown by their SMILES.

What all share (type): in vivo, female Sprague Dawley rats (ovariectomized)
The test system of assay [1] is Uterine Eosinophil Peroxidase (EPO). As to the kind of experiment: Uterine Eosinophil Peroxidase (EPO) Assay. Particulars: oral, daily for 4 days, OVX rats; for Uterine EPO (V. max): 450 nm. More on the design: Uterine EPO (V. max): unit not given here. The text has this:
(§1) Seventy-five day old female Sprague Dawley rats (weight range of 200 to 225 g) were obtained from Charles River Laboratories (Portage, Mich.). The animals were either bilaterally ovariectomized (OVX) or exposed to a Sham surgical procedure at Charles River Laboratories, and then shipped after one week. Upon arrival, they were housed in metal hanging cages in groups of 3 or 4 per cage and had ad libitum access to food (calcium content approximately 0.5%) and water for one week. Room temperature was maintained at 22.2°±1.7° C. with a minimum relative humidity of 40%. The photoperiod in the room was 12 hours light and 12 hours dark.
(§2) Dosing Regimen Tissue Collection. After a one week acclimation period (therefore, two weeks post-OVX) daily dosing with test compound was initiated. 17a-ethynyl estradiol or the test compound were given orally, unless otherwise stated, as a suspension in 1% carboxymethylcellulose or dissolved in 20% cyclodextrin. Animals were dosed daily for 4 days. Following the dosing regimen, animals were weighed and anesthetized with a ketamine: Xylazine (2:1, V:V) mixture and a blood sample was collected by cardiac puncture. The animals were then sacrificed by asphyxiation with CO2, the uterus was removed through a midline incision, and a wet uterine weight was determined.
Uterine Eosinophil Peroxidase (EPO) Assay. Uteri were kept at 4° C. until time of enzymatic analysis. The uteri were then homogenized in 50 volumes of 50 mM Tris buffer (pH-8.0) containing 0.005% Triton X-100. Upon addition of 0.01% hydrogen peroxide and 10 mM O-phenylenediamine (final concentrations) in Tris buffer, increase in absorbance was monitored for one minute at 450 nm. The presence of eosonophils in the uterus is an indication of estrogenic activity of a compound. The maximal velocity of a 15 second interval was determined over the initial, linear portion of the reaction curve.
As is expressed in the below data, estrogenicity also was assessed by evaluating the adverse response of eosinophil infiltration into the uterus.
(§3) The data presented in the Tables 1 below reflects the response of 5 to 6 rats per treatment.

Assay [2] has as its system Serum Cholesterol. As to the kind of experiment: Serum cholesterol analysis in ovariectomized rats. Particulars: oral, OVX rats.
Description: as §1, §2
Cholesterol Analysis. Blood samples were allowed to clot at room temperature for 2 hours, and serum was obtained following centrifugation for 10 minutes at 3000 rpm. Serum cholesterol was determined using a Boehringer Mannheim Diagnostics high performance cholesterol assay. Briefly the cholesterol was oxidized to cholest-4-en-3-one and hydrogen peroxide. The hydrogen peroxide was then reacted with phenol and 4-aminophenazone in the presence of peroxidase to produce a p-quinone imine dye, which was read spectrophotemetrically at 500 nm. Cholesterol concentration was then calculated against a standard curve. The entire assay was automated using a Biomek Automated Workstation.
as §3

The subject of assay [3] is uterus. As to the kind of experiment: Wet uterine weight in ovariectomized rats (post-menopausal model). To be noted: oral, OVX rats. Here is the method:
In the examples illustrating the methods, a post-menopausal model was used in which effects of different treatments upon circulating lipids were determined.
as §1, §2, §3

For assay [4], the system named is Distal Femur Metaphysis. As to the kind of experiment: Osteoporosis test, distal femur metaphysis X-ray image analysis. To be noted: oral; for Distal Femur Metaphysis (X-ray Image Analysis-Gray Score), percent protection relative to ovariectomy: daily for 35 days, in 20% hydroxypropyl b-cyclodextrin. The text has this: Seventy-five day old female Sprague Dawley rats (weight range of 200 to 225 g) were obtained from Charles River Laboratories (Portage, Mich.). The animals were either bilaterally ovariectomized (OVX) or exposed to a Sham surgical procedure at Charles River Laboratories, and then shipped after one week. Upon arrival, they were housed in metal hanging cages in groups of 3 or 4 per cage and had ad libitum access to food (calcium content approximately 0.5%) and water for one week. Room temperature was maintained at 22.2°±1.7° C. with a minimum relative humidity of 40%. The photoperiod in the room was 12 hours light and 12 hours dark. Following the General Preparation Procedure, infra, the rats were treated daily for 35 days (6 rats per treatment group) and sacrificed by carbon dioxide asphyxiation on the 36th day. The 35 day time period was sufficient to allow maximal reduction in bone density, measured as described herein. At the time of sacrifice, the uteri were removed, dissected free of extraneous tissue, and the fluid contents were expelled before determination of wet weight in order to confirm estrogen deficiency associated with complete ovariectomy. […] The uteri were then placed in 10% neutral buffered formalin to allow for subsequent histological analysis. The right femurs were excised and digitilized x-rays generated and analyzed by an image analysis program (NIH image) at the distal metaphysis. The proximal aspect of the tibiae from these animals were also scanned by quantitative computed tomography. In accordance with the above procedures, compounds of the present invention and ethynyl estradiol (EE2) in 20% hydroxypropyl b-cyclodextrin were orally administered to test animals. Distal femur metaphysis data presented in Tables 2 and 3 below are the results of formula I compound treatments compared to intact and ovariectomized test animals. Results are reported as percent protection relative to ovariectomy.

Where [5] appears, read: Rattus norvegicus, 96 h, daily for 4 days, read-out: Serum Cholesterol (% decrease vs. OVX).
Setting [6] is: Rattus norvegicus, 96 h, daily for 4 days, read-out: Uterine Weight (% increase vs. OVX).

Take `c1ccc2c(c1)OC(c1ccc(OCCN3CCCCC3)cc1)c1c-2sc2ccccc12` (stereo not drawn) [Example 7, 6-[4-[2-(1-piperidinyl)ethoxy]phenyl]-6-H-[1]benzothieno[3,2-c][1]benzopyran]: in assay [1] (0.1 mg/kg), the “Uterine EPO (V. max)” value is given as 4.8. Moreover, the “Uterine EPO (V. max)” value in assay [1] (1.0 mg/kg) is reported as 6.6. The “Uterine EPO (V. max)” value in assay [1] (10.0 mg/kg) was determined as 3.6. Besides, in assay [2] (setting [5]), the inhibition in vivo at 0.1 mg/kg is 39.8%, the inhibition in vivo at 1 mg/kg came out at 65.5% and the inhibition in vivo at 10 mg/kg turned out to be 54%. Further, in assay [3] (setting [6]), the change in vivo at 0.1 mg/kg is 28.9%, the change in vivo at 1 mg/kg came to 31.2% and the change in vivo at 10 mg/kg stood at 14.7%.

In the case of `CN(C)CCOc1ccc(C2Oc3cc(O)ccc3-c3sc4cc(O)ccc4c32)cc1` (stereo not drawn) [Example 9, 3,9-Dihydroxy-6-[4-(2-dimethylaminoethoxy)phenyl]-6-H-[1]benzothieno[3,2-c][1]benzopyran], the “Uterine EPO (V. max)” value in assay [1] (0.1 mg/kg) is on record as 52.2. Besides, the inhibition in vivo at 0.1 mg/kg in assay [2] (setting [5]) stood at 40.1%. In addition, the change in vivo at 0.1 mg/kg in assay [3] (setting [6]) was 77.8%.

As to `C#CC1(O)CCC2C3CCc4cc(O)ccc4C3CCC21C` (stereo not drawn) [EE2, 17α-ethynyl estradiol, reference compound], the “Uterine EPO (V. max)” value in assay [1] (0.1 mg/kg) is on record as 116.4. Also, the “Eosinophil infiltration into the uterus (stromal layer)” value in assay [1] is reported as “substantial, expected increase in eosinophil infiltration”. For the same compound, the “Distal Femur Metaphysis (X-ray Image Analysis-Gray Score), percent protection relative to ovariectomy” value in assay [4] (0.1 mg/kg) turned out to be 62.4%. In assay [4] (OVX rats, 35 days), the “Prevention of bone loss (result in words)” value was “prevented this loss”. Besides, in assay [2] (setting [5]), the inhibition in vivo at 0.1 mg/kg was found to be 81.4%. The “Serum cholesterol (result in words)” value in assay [2] (EE2 at 0.1 mg/kg/day) was “caused a decrease in serum cholesterol”. Also, the change in vivo at 0.1 mg/kg in assay [3] (setting [6]) was 86.3%. Also, the “Uterine weight (result in words)” value in assay [3] (EE2 at 0.1 mg/kg/day) was “uterine weight was substantially greater than the uterine weight of ovariectomized test animals”.

In the case of `Oc1ccc2c(c1)OC(c1ccc(OCCN3CCCC3)cc1)c1c-2sc2cc(O)ccc12` (stereo not drawn) [Example 8, 3,9-Dihydroxy-6-[4-[2-(1-pyrrolidinyl)ethoxy]phenyl]-6-H-[1]benzothieno[3,2-c][1]benzopyran], in assay [1] (0.01 mg/kg), the “Uterine EPO (V. max)” value is 2.1. Moreover, the “Uterine EPO (V. max)” value in assay [1] (0.1 mg/kg) turned out to be 4.8. Moreover, the “Uterine EPO (V. max)” value in assay [1] (1.0 mg/kg) is listed as 4.8. Besides, the inhibition in vivo at 0.01 mg/kg in assay [2] (Rattus norvegicus, 96 h, 0.01 mg/kg, daily for 4 days, read-out: Serum Cholesterol (% decrease vs. OVX)) stood at 50.5%. Besides, in assay [2] (setting [5]), the inhibition in vivo at 0.1 mg/kg is 38.5% and the inhibition in vivo at 1 mg/kg is 68%. For the same compound, the change in vivo at 0.01 mg/kg in assay [3] (Rattus norvegicus, 96 h, 0.01 mg/kg, daily for 4 days, read-out: Uterine Weight (% increase vs. OVX)) was 10.2%. Moreover, in assay [3] (setting [6]), the change in vivo at 0.1 mg/kg worked out at 27.4% and the change in vivo at 1 mg/kg stood at 27.2%.

`Oc1ccc2c(c1)OC(c1ccc(OCCN3CCCCC3)cc1)c1c-2ccc2cc(O)ccc12` (stereo not drawn) [Example 11b, 2,8-Dihydroxy-5-[4-[2-(1-piperidinyl)ethoxy]phenyl]-5H-benzo[b]naphtho[2,1-d]pyran]: the “Uterine EPO (V. max)” value was 9.3 in assay [1] (0.1 mg/kg), 12.0 in assay [1] (1.0 mg/kg) and 7.8 in assay [1] (10.0 mg/kg). The “Distal Femur Metaphysis (X-ray Image Analysis-Gray Score), percent protection relative to ovariectomy” value in assay [4] (0.01 mg/kg) was determined as 45.6%; in assay [4] (0.1 mg/kg), 38.5%; in assay [4] (1.0 mg/kg), 58.5%; in assay [4] (10.0 mg/kg) it was 37.3%. Moreover, the inhibition in vivo at 0.1 mg/kg in assay [2] (setting [5]) was determined as 66.4%. Further, in assay [2] (setting [5]), the inhibition in vivo at 1 mg/kg was determined as 73.9%. The inhibition in vivo at 10 mg/kg in assay [2] (setting [5]) amounted to 61.4%. The change in vivo at 0.1 mg/kg in assay [3] (setting [6]) came to 13.6%. Also, the change in vivo at 1 mg/kg in assay [3] (setting [6]) worked out at 7.6%. For the same compound, the change in vivo at 10 mg/kg in assay [3] (setting [6]) was -4.1%.
